Measured values: PMC2874658 (Bioorganic & medicinal chemistry letters, 2010)

Experiments:
hPK, M2 (PKM2) = hPK, M2 (PKM2) (Homo sapiens, UniProt P14618); test: luminescent pyruvate kinase-luciferase coupled assay; assay type: biochemical; conditions: for potency (in words): PKM2 activation, SAR statement; for activation at 57 µM: read-out: hPK, M2 Max. Res, % activation at 57 μM of compound, luciferase coupled assay
PKM2 = PKM2 (Homo sapiens, UniProt P14618); test: steady-state kinetics of PEP and ADP in the PK-LDH coupled assay; assay type: biochemical
PKM2, sequence (P14618 whole entry): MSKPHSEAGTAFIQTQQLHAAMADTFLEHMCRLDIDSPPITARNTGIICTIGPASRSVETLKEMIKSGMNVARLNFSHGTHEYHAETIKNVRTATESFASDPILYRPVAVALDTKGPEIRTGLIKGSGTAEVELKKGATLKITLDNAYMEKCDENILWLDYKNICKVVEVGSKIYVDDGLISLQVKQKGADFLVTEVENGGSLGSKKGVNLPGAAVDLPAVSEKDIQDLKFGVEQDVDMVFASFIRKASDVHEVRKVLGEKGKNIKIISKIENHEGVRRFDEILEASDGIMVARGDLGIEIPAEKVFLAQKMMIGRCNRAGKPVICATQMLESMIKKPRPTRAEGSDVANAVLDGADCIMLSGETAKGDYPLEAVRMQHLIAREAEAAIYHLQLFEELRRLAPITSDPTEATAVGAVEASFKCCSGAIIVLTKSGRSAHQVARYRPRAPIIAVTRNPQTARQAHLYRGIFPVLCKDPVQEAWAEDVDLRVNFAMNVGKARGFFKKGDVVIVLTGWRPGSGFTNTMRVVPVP

hPK, M2 (PKM2), sequence (P14618 whole entry): as above

Row | Structure (SMILES) | potency (in words) (hPK, M2 (PKM2)) | activation at 57 µM (hPK, M2 (PKM2)) | further results
1 | CCCCCn1ncc2c3sc(C)cc3n(C)c2c1=O [compound 25] | marked loss of potency |  | 
2 | Cc1cc2c(s1)c1cnn(Cc3ccccc3F)c(=O)c1n2C [compound 1] |  |  | decrease of KM for PEP (PKM2; in the presence of activator versus absence (KM ~ 1.5 mM)): 10 fold; Vmax (PKM2; with or without activator): 255 pmols/min
3 | Cn1c2ccsc2c2ncn(Cc3ccccc3F)c(=O)c21 [compound 23] |  | < 80% | 
4 | Cc1cc2[nH]c3c(=O)n(Cc4ccccc4F)ncc3c2s1 [compound 19] |  | 33% | 
5 | Cc1cc2c(s1)c1cnn(-c3ccccc3)c(=O)c1n2C [compound 24] | marked loss of potency |  | 
